Test results from US20230011869A1 (Hoffmann-La Roche Inc., priority 2018, published 2023).
Structures can show the parent of a compound that is named as a salt.

The molecules below were run on Acinetobacter baumannii ATCC17961 (assay: Antimicrobial susceptibility testing: 90% growth inhibitory concentration (IC90) determination, Iso-Sensitest broth). Conditions: Acinetobacter baumannii, ATCC17961, 16 h, 90% growth inhibitory concentration, Acinetobacter baumannii ATCC17961, Iso-Sensitest broth, OD 600 nm over 16 h; read-out: ATCC17961 IC90.
Format: cell-based
Description: Antimicrobial Susceptibility Testing:
90% Growth Inhibitory Concentration (IC90) Determination
The in vitro antimicrobial activity of the compounds was determined according to the following procedure:
The assay used a 10-points Iso-Sensitest broth medium to measure quantitatively the in vitro activity of the compounds against Acinetobacter baumannii ATCC17978 and Acinetobacter baumannii ATCC17961.
Stock compounds in DMSO were serially twofold diluted (e.g. range from 50 to 0.097 μM final concentration) in 384 wells microtiter plates and inoculated with 49 μl the bacterial suspension in Iso-Sensitest medium to have a final cell concentration of 5×10^(5) CFU/ml in a final volume/well of 50 ul/well. Microtiter plates were incubated at 35±2° C.
Bacterial cell growth was determined with the measurement of optical density at λ=600 nm each 20 minutes over a time course of 16 h. Growth inhibition was calculated during the logarithmic growth of the bacterial cells with determination of the concentration inhibiting 50% (IC50) and 90% (IC90) of the growth.
Table 1 provides the 90% growth inhibitory concentrations (IC90) in micromoles per liter of the compounds of present invention obtained against the strain Acinetobacter baumannii ATCC17978 and Acinetobacter baumannii ATCC17961.
With `COc1ccc(-c2cnc3c(Nc4ccc(C(=O)N5CCN(C(=O)[C@H]6NC[C@H]7C[C@H]76)CC5)c(C)c4)nccn23)c(F)c1F` (racemic) [Example 82, (4-((1R,2S,5S)-3-azabicyclo[3.1.0]hexane-2-carbonyl)piperazin-1-yl)(4-((3-(2,3-difluoro-4-methoxyphenyl)imidazo[1,2-a]pyrazin-8-yl)amino)-2-methylphenyl)methanone hydrochloride] the IC90 was 98 nM. Molecule `COc1ccc(-c2cnc3c(Nc4ccc(C(=O)N5CCC(C(=O)NC[C@H]6O[C@H](O)[C@H](N)[C@@H](O)[C@@H]6O)CC5)c(C)c4)nccn23)c(F)c1F` [Example 584, N-(((2R,3S,4R,5R,6S)-5-amino-3,4,6-trihydroxytetrahydro-2H-pyran-2-yl)methyl)-1-(4-((3-(2,3-difluoro-4-methoxyphenyl)imidazo[1,2-a]pyrazin-8-yl)amino)-2-methylbenzoyl)piperidine-4-carboxamide] has an IC90 of 164 nM. Molecule `Cc1cc(Nc2nccn3c(-c4ccc(OCC#N)c(Cl)c4F)cnc23)ccc1C(=O)N1CCN(C(=O)[C@@H]2C[C@@H](O)CN2)CC1` [Example 283, 2-[2-chloro-3-fluoro-4-[8-[4-[4-[(2S,4R)-4-hydroxypyrrolidine-2-carbonyl]piperazine-1-carbonyl]-3-methylanilino]imidazo[1,2-a]pyrazin-3-yl]phenoxy]acetonitrile] has an IC90 of 51 nM. Molecule `COc1ccc(-c2cnc3c(Nc4ccc(C(=O)N5CCN(C(=O)[C@]6(O)CNCC[C@H]6O)CC5)c(C)c4)nccn23)c(F)c1F` (relative stereo) [Example 236, rel-(4-(4-((3-(2,3-difluoro-4-methoxyphenyl)imidazo[1,2-a]pyrazin-8-yl)amino)-2-methylbenzoyl)piperazin-1-yl)((3R,4S)-3,4-dihydroxypiperidin-3-yl)methanone] has an IC90 of 82 nM. `COc1ccc(-c2cnc3c(Nc4ccc(C(=O)N5CCN(C(=O)[C@@H]6C[C@@H](F)CN6)CC5)c(C)c4)nccn23)c(F)c1F` [Example 81, (4-(4-((3-(2,3-difluoro-4-methoxyphenyl)imidazo[1,2-a]pyrazin-8-yl)amino)-2-methylbenzoyl)piperazin-1-yl)((2S,4R)-4-fluoropyrrolidin-2-yl)methanone hydrochloride] gave an IC90 of 106 nM. In the case of `Cc1cc(Nc2nccn3c(-c4ccc(OCC#N)c(F)c4Cl)cnc23)ccc1C(=O)N1CCN(C(=O)[C@H]2CCNC2)CC1` [Example 213, 2-[3-chloro-2-fluoro-4-[8-[3-methyl-4-[4-[(3S)-pyrrolidine-3-carbonyl]piperazine-1-carbonyl]anilino]imidazo[1,2-a]pyrazin-3-yl]phenoxy] acetonitrile formate], the IC90 is reported as 33 nM. `COc1ccc(-c2cnc3c(Nc4ccc(C(=O)N5CCN(C(=O)[C@@H]6C[C@H](O)CN6)CC5)c(C)c4)nccn23)c(F)c1F` [Example 227, [4-[[3-(2,3-difluoro-4-methoxy-phenyl)imidazo[1,2-a]pyrazin-8-yl]amino]-2-methyl-phenyl]-[4-[(2S,4S)-4-hydroxypyrrolidine-2-carbonyl]piperazin-1-yl]methanone] gave an IC90 of 58 nM. For `COc1ccc(-c2cnc3c(Nc4ccc(C(=O)N5CCC(C(=O)NC[C@H](O)[C@@H](O)CN)CC5)c(C)c4)nccn23)c(F)c1F` [Example 294, N-[(2S,3S)-4-amino-2,3-dihydroxybutyl]-1-[4-[[3-(2,3-difluoro-4-methoxyphenyl)imidazo[1,2-a]pyrazin-8-yl]amino]-2-methylbenzoyl]piperidine-4-carboxamide], the IC90 was 160 nM. `Cc1cc(Nc2nccn3c(-c4ccc(OCC#N)c(F)c4Cl)cnc23)ccc1C(=O)N1CCN(C(=O)N2CCO[C@@H](CN)C2)CC1` [Example 158, 2-[4-[8-[4-[4-[(2S)-2-(aminomethyl)morpholine-4-carbonyl]piperazine-1-carbonyl]-3-methyl-anilino]imidazo[1,2-a]pyrazin-3-yl]-3-chloro-2-fluoro-phenoxy]acetonitrile formate] was tested, and the IC90 was 74 nM. Molecule `COc1ccc(-c2cnc3c(Nc4ccc(C(=O)N5CCN(C(=O)[C@@H]6NC[C@@H](O)[C@H]6O)CC5)c(C)c4)nccn23)c(F)c1F` [Example 235, (4-(4-((3-(2,3-difluoro-4-methoxyphenyl)imida-zo[1,2-a]pyrazin-8-yl)amino)-2-methylbenzoyl)piper-azin-1-yl)((2R,3S,4R)-3,4-dihydroxypyrrolidin-2-yl)methanone] has an IC90 of 117 nM. Work on `Cc1cc(Nc2nccn3c(-c4ccc(OC(F)F)cc4)cnc23)ccc1C(=O)N1CCN(C(=O)C2CCNCC2)CC1` [Example 173, [4-[[3-[4-(difluoromethoxy)phenyl]imidazo[1,2-a]pyrazin-8-yl]amino]-2-methyl-phenyl]-[4-(piperidine-4-carbonyl)piperazin-1-yl]methanone hydrochloride] yielded an IC90 of 35 nM. `COc1ccc(-c2cnc3c(Nc4ccc(C(=O)N5CCN(C(=O)[C@@H]6CC(F)(F)CN6)CC5)c(C)c4)nccn23)c(F)c1F` [Example 573, (S)-(4-(4-((3-(2,3-difluoro-4-methoxyphenyl)imidazo[1,2-a]pyrazin-8-yl)amino)-2-methylbenzoyl)piperazin-1-yl)(4,4-difluoropyrrolidin-2-yl)methanone hydrochloride] gave an IC90 of 310 nM. `COc1ccc(-c2cnc3c(Nc4cc(C)c(C(=O)N5CCN(C(=O)[C@@H]6C[C@@H](O)CN6)CC5)c(F)c4)nccn23)c(F)c1F` [Example 243, (4-(4-((3-(2,3-difluoro-4-methoxyphenyl)imidazo[1,2-a]pyrazin-8-yl)amino)-2-fluoro-6-methylbenzoyl)piperazin-1-yl)((2S,4R)-4-hydroxypyrrolidin-2-yl)methanone dihydrochloride] gave an IC90 of 113 nM. `C#CCOc1ccc(-c2cnc3c(Nc4ccc(C(=O)N5CCC(CN)CC5)c(C)c4)nccn23)c(F)c1F` [Example 121, [4-(aminomethyl)-1-piperidyl]-[4-[[3-(2,3-difluoro-4-prop-2-ynoxy-phenyl)imidazo[1,2-a]pyrazin-8-yl]amino]-2-methyl-phenyl]methanone; formic acid] showed an IC90 of 33 nM. `COc1ccc(-c2cnc3c(Nc4ccc(C(=O)N5CCN(C(=O)[C@@H]6C[C@@H](O)CN6)CC5)c(C)c4)nccn23)cc1Cl` [Example 92, (4-(4-((3-(3-chloro-4-methoxyphenyl)imidazo[1,2-a]pyrazin-8-yl)amino)-2-methylbenzoyl)piperazin-1-yl)((2S,4R)-4-hydroxypyrrolidin-2-yl)methanone hydrochloride] was tested, and the IC90 was 98 nM. `Cc1cc(Nc2nccn3c(-c4ccc(OCC#N)c(F)c4F)cnc23)ccc1C(=O)N1CCC(C(=O)N2CC3(CNC3)C2)CC1` [Example 87, 2-(4-(8-((4-(4-(2,6-diazaspiro[3.3]heptane-2-carbonyl)piperidine-1-carbonyl)-3-methylphenyl)amino)imidazo[1,2-a]pyrazin-3-yl)-2,3-difluorophenoxy)acetonitrile] was tested, and the IC90 was 166 nM. With `Cc1cc(Nc2nccn3c(-c4ccc(OCC#N)c(F)c4F)cnc23)ccc1C(=O)N1CCN(C(=O)[C@@H]2CCNC[C@H]2O)CC1` [Example 190, 2-[2,3-difluoro-4-[8-[4-[4-[(3S,4R)-3-hydroxypiperidine-4-carbonyl]piperazine-1-carbonyl]-3-methyl-anilino]imidazo[1,2-a]pyrazin-3-yl]phenoxy] acetonitrile formate] the IC90 was 46 nM. In the case of `COc1ccc(-c2cnc3c(Nc4ccc(C(=O)N5CCC(C(=O)NCC(O)CN(C)C)CC5)c(C)c4)nccn23)c(F)c1F` (stereo not shown) [Example 89, 1-(4-((3-(2,3-difluoro-4-methoxyphenyl)imidazo[1,2-a]pyrazin-8-yl)amino)-2-methylbenzoyl)-N-(3-(dimethylamino)-2-hydroxypropyl)piperidine-4-carboxamide], the IC90 is reported as 72 nM.

Same assay, conditions: Acinetobacter baumannii, ATCC17961, 16 h, read-out: ATCC17961 IC90
`COc1ccc(-c2cnc3c(Nc4ccc(C(=O)N5CCN(C(=O)[C@@]6(O)CNCC[C@@H]6O)CC5)c(C)c4)nccn23)c(F)c1F` [Example 290, [4-[[3-(2,3-difluoro-4-methoxyphenyl)imidazo[1,2-a]pyrazin-8-yl]amino]-2-methylphenyl]-[4-[(3R,4S)-3,4-dihydroxypiperidine-3-carbonyl]piperazin-1-yl]methanone; hydrochloride] gave an IC90 of 109 nM. Work on `COc1ccc(-c2cnc3c(Nc4ccc(C(=O)N5CCN(C(=O)[C@@H]6C[C@@H](CO)CN6)CC5)c(C)c4)nccn23)c(F)c1F` [Example 284, [4-[[3-(2,3-difluoro-4-methoxyphenyl)imidazo[1,2-a]pyrazin-8-yl]amino]-2-methylphenyl]-[4-[(2S,4R)-4-(hydroxymethyl)pyrrolidine-2-carbonyl]piperazin-1-yl]methanone; hydrochloride] yielded an IC90 of 49 nM. `COc1cc(Nc2nccn3c(-c4ccc(OC)c(F)c4F)cnc23)ccc1C(=O)N1CCN(C(=O)C2CCNCC2)CC1` [Example 587, (4-(4-((3-(2,3-difluoro-4-methoxyphenyl)imidazo[1,2-a]pyrazin-8-yl)amino)-2-methoxybenzoyl)piperazin-1-yl)(piperidin-4-yl)methanone formate] was tested, and the IC90 was 214 nM. For `Cc1cc(Nc2nccn3c(-c4ccc(OC(F)F)cc4)cnc23)ccc1C(=O)N1CCC(C(=O)N[C@H]2CCNC2)CC1` [Example 279, 1-[4-[[3-[4-(difluoromethoxy)phenyl]imi-dazo[1,2-a]pyrazin-8-yl]amino]-2-methylbenzoyl]-N-[(3S)-pyrrolidin-3-yl]piperidine-4-carboxamide; hydrochloride], the IC90 was 1340 nM.
